Experimental data published in patent US10738054B2, “Synergistic compositions comprising (R)-dimiracetam (1) and (S)-dimiracetam (2) in a non-racemic ratio” (Metys Pharmaceuticals AG, priority 2017, dated 2020).
Several values for one entry are separate records, joined by “and”; a condition that tells them apart may be missing. Equal entries are not always repeated. Each block holds one compound with its values, some of them ahead of it.

Key:
[1] = test system: NMDA plus glycine-evoked [3H]-D-aspartic acid release from rat spinal synaptosomes; experiment: Inhibition of NMDA+glycine-induced glutamate ([3H]-D-Asp) release from rat spinal synaptosomes (Example 2); format: biochemical; conditions: for Percent inhibition of NMDA + glycine-induced glutamate release from rat spinal synaptosomes: mean ± S.E.M. of 3 to 6 experiments; for IC50: rat spinal synaptosomes, 10 μM NMDA plus 1 μM glycine, read-out: estimated IC50 for inhibition of NMDA plus glycine-evoked [3H]-D-aspartic acid release
Protocol: Rat spinal synaptosomes, free from glial contaminants, were prepared according to the method of Paluzzi S. et al., 2007, a modification of the method of Nakamura et al., 1993, as follows.
Sprague-Dawley rats aged between 90 to 130 days were used. Animals were housed at constant temperature (22±1° C.) and relative humidity (50%) under a regular light-dark schedule (lights 7.00 am-7.00 pm). Food and water were freely available.
Rats were sacrificed by decapitation and the whole spinal cord was rapidly removed and maintained at 4° C. Rat spinal cord was homogenized (90 rpm; 24 up-down strokes in 2 min) in 10 volumes (1 g tissue in 10 ml) of ice cold 0.32 M sucrose, buffered at pH 7.4 using a glass-teflon tissue grinder (clearance 0.25 mm). The homogenate was centrifuged (5 min, 1000 g at 4° C.) to remove nuclei and debris, and the supernatant was gently stratified at 0-4° C. on a discontinuous Percoll® (Sigma Aldrich, St Louis, Mo., USA) gradient (2, 6, 10 and 20% v/v in Tris-buffered sucrose) and centrifuged at 33,500 g for 5 min. The layer between 10 and 20% Percoll (i.e. the synaptosomal fraction) was collected and washed by centrifugation in physiological medium having the following composition (mM): NaCl, 140; KCl, 3; MgSO4 1.2; NaH2PO4, 1.2; NaHCO3 5; CaCl2 1.2; HEPES 10; glucose, 10; pH 7.4. Protein content was measured according to Bradford M M, 1976 using bovine serum albumin as a standard.
Synaptosomes (about 70 μg protein) were incubated at 37° C. for 15 min in 2.5 mL of 0.05 μM [^3H]-D-aspartate ([^3H]-D-Asp; Perkin Elmer Italia, Monza, Milano, Italy). Then, the suspension was diluted to 122.5 mL with physiological medium maintained at 37° C. and 5 mL aliquots of the synaptosomal suspension were layered on microporous filters placed at the bottom of a set of 24 parallel 25 mL superfusion chambers maintained at 37° C. (Superfusion system, Ugo Basile, Comerio, Varese, Italy). Superfusion was then started with physiological medium at a rate of 0.5 mL/min, and was continued for 46 min. Starting at t=37 min, nine consecutive 1-min filtrate samples were collected. NMDA (10 μM) and glycine (1 μM) were introduced at the end of the first sample collected and maintained until the end of the experiment.
The radioactivity contained in each filtrate sample was measured by scintillographic methods, using a Ultima Gold scintillation fluid (Perkin-Elmer Milan, Italy). Each whole 0.5 mL sample was counted for radioactivity by adding 3 mL of scintillation fluid.
Tritium content measured in each sample was expressed as fractional percent (i.e. percent content of each sample with respect to total [^3H] content at the onset of the respective collection period). Drug effects were evaluated by calculating the ratio between the effluxes in the seventh fraction collected (in which the maximum effect of NMDA was reached) and that of the first fraction (basal release, prior to application of NMDA+glycine). This ratio was compared to the same seventh- and first-fraction ratio obtained under control conditions.
The possible effects of racemic and non-racemic dimiracetam mixtures on NMDA plus glycine-induced neurotransmitter release from rat spinal cord synaptosomes were assessed.

[2] = test system: NMDA+glycine-induced [3H]-D-aspartate release in rat spinal cord synaptosomes; experiment: In vitro inhibition of pre-loaded [3H]-D-aspartate release induced by NMDA+glycine in rat spinal cord synaptosomes (Example 5); format: biochemical; conditions: tested at 10 nM
Protocol: These experiments were performed following the previously published methodology (Fariello et al. Neuropharmacology. 2014, (81), 85-94) and the results are shown in FIG. 5.

[3] = test system: rats with oxaliplatin-induced mechanical hyperalgesia; experiment: Paw pressure test (Randall & Selitto) in oxaliplatin model; format: in vivo, rat; conditions: oxaliplatin 2.4 mg/kg i.p.
Protocol: Paw mechanical sensitivity was determined using a Randall & Selitto apparatus (Randall and Selitto, 1957) exerting a force that increases at constant rate (32 g/s). The stimulus causing paw withdrawal was evaluated before and at different times after treatment. Results represent the mean of mechanical thresholds for paw withdrawal expressed as grams. To avoid possible damage to the rat paw the maximum applied force was set at 240 g. In the single administration protocol, paw pressure tests were performed before (pre-dose) and at regular intervals after treatment.
Peripheral sensory neuropathy was induced in adult rats, by administration of oxaliplatin (Tocris) at 2.4 mg/kg i.p. in saline once daily for 5 consecutive days every week for three weeks (cumulative dose 36 mg/kg) according to Cavaletti et al., 2001. Starting from day 21 after the first oxaliplatin administration, the effect of repeated oral administration of racemic dimiracetam or the preferred inventive composition with an enantiomeric excess of (R)-dimiracetam of 50% corresponding to a 3:1 (R):(S) ratio of the enantiomers on oxaliplatin-induced mechanical hyperalgesia was assessed.
After repeated oral administration of either racemic dimiracetam or the preferred inventive composition with an enantiomeric excess of (R)-dimiracetam of 50%, oxaliplatin-induced mechanical hyperalgesia was measured. Pain threshold was assessed by a Randall & Selitto analgesymeter before the morning administration. […] Development of tolerance was not observed.
(§1) After repeated oral administration of either racemic dimiracetam or the preferred inventive composition with an enantiomeric excess of (R)-dimiracetam of 50%, oxaliplatin-induced mechanical hyperalgesia was measured. Pain threshold was assessed by a Randall & Selitto analgesymeter (Leighton et al. Br. J. Pharmacol. 93:553-560, 1988) before the morning administration. In the morning of day 28, also mechanical allodynia (Sakurai et al. Pain 147:165-74, 2009) and cold sensitivity were assessed, using the von Frey and cold plate tests (Di Cesare Mannelli et al. Exp Neurol 261:22-33, 2014), respectively. […] Development of tolerance was not observed.
Paw mechanical sensitivity was determined using a Randall & Selitto apparatus exerting a force that increases at constant rate (32 g/s). The stimulus at which rats withdrew the paw was evaluated before and at different times after treatment. Results represent the mean of mechanical thresholds expressed as grams. To avoid any possible damage to the animal paw the maximum applied force was fixed at 240 g (Leighton et al. Br. J. Pharmacol. 93:553-560, 1988).

[4] = test system: rats with oxaliplatin-induced mechanical allodynia; experiment: Von Frey test in oxaliplatin model; format: in vivo, rat; conditions: oxaliplatin 2.4 mg/kg i.p.
Protocol: as §1
The animals were placed in 20 cm×20 cm Plexiglas boxes equipped with a metallic mesh floor, 20 cm above the bench. Animals were allowed to habituate themselves to their environment for 15 min before the test. An electronic Von Frey hair unit (Ugo Basile, Varese, Italy) was used: the withdrawal threshold was evaluated by applying forces ranging from 0 to 50 g with a 0.2 g accuracy. […] The paw sensitivity threshold was defined as the minimum force required to elicit a robust and immediate withdrawal reflex of the paw. Voluntary movements associated with locomotion were not considered as a withdrawal response. Stimuli were applied to each posterior paw at 5 s intervals. Measurements were repeated 5 times and the final value was obtained by averaging the 5 measurements (Sakurai et al. Pain 147:165-74, 2009).

[5] = test system: rats with oxaliplatin-induced cold sensitivity; experiment: Cold plate test in oxaliplatin model; format: in vivo, rat; conditions: oxaliplatin 2.4 mg/kg i.p.
Protocol: as §1
The animals were placed in a stainless box (12 cm×20 cm×10 cm) with a cold plate as floor. The temperature of the cold plate was kept constant at 4° C.±1° C. Pain-related behaviors (i.e. lifting and licking of the hind paw) were observed and the time (s) of the first sign was recorded. The cut-off time of the latency of paw lifting or licking was set at 60 s (Di Cesare Mannelli et al. Exp Neurol 261:22-33, 2014).

[6] = test system: NMDA-plus-glycine-triggered release of [3H]-D-aspartate in synaptosomal preparations of the hippocampus; conditions: hippocampus synaptosomes; read-out: IC50 for inhibiting NMDA-plus-glycine-triggered release of [3H]-D-aspartate; cited from earlier work
[7] = test system: NMDA-plus-glycine-triggered [3H]-D-aspartate release in synaptosomal preparations of the spinal cord; conditions: spinal cord synaptosomes; read-out: IC50 for inhibiting NMDA-plus-glycine-triggered [3H]-D-aspartate release; cited from earlier work
[8] = test system: rats pre-treated with 2′,3′-dideoxycytidine (ddC, zalcitabine); conditions: cited from earlier work
[9] = Rat plasma concentration-time profiles after oral administration; format: in vivo; conditions: for rat plasma concentration-time profiles after oral administration: 75 mg/kg p.o. enantiomer vs 150 mg/kg p.o. racemate (FIG. 4A, 4B); for interconversion of enantiomers in vivo: rat, oral administration
Protocol: FIG. 4A: Comparison of the plasma concentration-time profiles of the (R)-enantiomer after oral administration of (R)-dimiracetam (75 mg/kg) and after oral administration of racemic dimiracetam (150 mg/kg)
FIG. 4B: Comparison of the plasma concentration-time profiles of the (S)-enantiomer after oral administration of (S)-dimiracetam (2) (75 mg/kg) and after oral administration of racemic dimiracetam (150 mg/kg).

- IC50 [1]: 14.6 nM and 15 nM
SMILES: O=C1CN2C(=O)CCC2N1 (racemic) [racemic dimiracetam, (RS)-3,6,7,7a-tetrahydro-1H-pyrrolo[1,5-a]imidazole-2,5-dione]
- Percent inhibition of NMDA + glycine-induced glutamate release from rat spinal synaptosomes ([1]; 0.1 nM): 9 ± 13%
- Percent inhibition of NMDA + glycine-induced glutamate release from rat spinal synaptosomes ([1]; 1 nM): 29 ± 3%
- Percent inhibition of NMDA + glycine-induced glutamate release from rat spinal synaptosomes ([1]; 10 nM): 35 ± 4%
- inhibition of NMDA plus glycine-evoked [3H]-D-aspartic acid release ([1]; at a concentration of 10 nM): 36%
- % inhibition (mean) [2]: 35.4%
- Randall & Selitto, paw pressure, Day 28 ([3]; 15 mg/kg b.i.d.): 48.7 ± 2.5 g
- Randall & Selitto, paw pressure, Pre-test ([3]; 15 mg/kg b.i.d.): 68.1 ± 1.2 g
- Randall & Selitto, paw pressure, Day 28 ([3]; 50 mg/kg b.i.d.): 55.2 ± 1.0 g
- Randall & Selitto, paw pressure, Pre-test ([3]; 50 mg/kg b.i.d.): 67.1 ± 0.8 g
- Von Frey paw withdrawal, Day 28 ([4]; 15 mg/kg b.i.d.): 16.0 ± 1.5 g
- Von Frey paw withdrawal, Pre-test ([4]; 15 mg/kg b.i.d.): 21.4 ± 1.0 g
- Von Frey paw withdrawal, Day 28 ([4]; 50 mg/kg b.i.d.): 18.5 ± 2.3 g
- Von Frey paw withdrawal, Pre-test ([4]; 50 mg/kg b.i.d.): 21.4 ± 0.5 g
- Cold plate, licking latency, Day 28 ([5]; 15 mg/kg b.i.d.): 14.8 ± 1.5 s
- Cold plate, licking latency, Pre-test ([5]; 15 mg/kg b.i.d.): 21.5 ± 1.0 s
- Cold plate, licking latency, Day 28 ([5]; 50 mg/kg b.i.d.): 15.4 ± 1.0 s
- Cold plate, licking latency, Pre-test ([5]; 50 mg/kg b.i.d.): 22.0 ± 0.8 s
- IC50 [6]: ~3000 nM
- IC50 [7]: ~20 nM
- efficacy response after a single oral dose [8]: superior response compared to either (R)- or (S)-dimiracetam alone

- IC50 [1]: 123 nM
- rat plasma concentration-time profiles after oral administration [9]: identical
- interconversion of enantiomers in vivo [9]: do not to interconvert in vivo
SMILES: O=C1CN2C(=O)CC[C@@H]2N1 [(R)-dimiracetam, (R)-3,6,7,7a-tetrahydro-1H-pyrrolo[1,5-a]imidazole-2,5-dione]
- efficacy response after a single oral dose [8]: partial efficacy response

- IC50 [1]: 418 nM
- rat plasma concentration-time profiles after oral administration [9]: identical
- interconversion of enantiomers in vivo [9]: do not to interconvert in vivo
SMILES: O=C1CN2C(=O)CC[C@H]2N1 [(S)-dimiracetam, (S)-3,6,7,7a-tetrahydro-1H-pyrrolo[1,5-a]imidazole-2,5-dione]
- efficacy response after a single oral dose [8]: smaller response than the corresponding dose of the (R)-enantiomer
